Experimental data from article PMC11969553, “Expression of Human β3GalT5–1 in Insect Cells as Active Glycoforms for the Efficient Synthesis of Cancer-Associated Globo-Series Glycans” (Journal of the American Chemical Society, 2025).

Assays:
membrane-bound β3GalT5–2 = target: T1, membrane-bound β3GalT5–2 (Homo sapiens, UniProt A0A0A0MS93); assay: galactosyltransferase activity; type: biochemical; conditions: UDP-Gal, with or without 1% LMNG
T1 construct: gene B3GALT5; full length, 314 residues, C-terminal Flag tag, expressed in HEK293 cells, LMNG-extracted, anti-Flag purified
T1 sequence (A0A0A0MS93 1-314): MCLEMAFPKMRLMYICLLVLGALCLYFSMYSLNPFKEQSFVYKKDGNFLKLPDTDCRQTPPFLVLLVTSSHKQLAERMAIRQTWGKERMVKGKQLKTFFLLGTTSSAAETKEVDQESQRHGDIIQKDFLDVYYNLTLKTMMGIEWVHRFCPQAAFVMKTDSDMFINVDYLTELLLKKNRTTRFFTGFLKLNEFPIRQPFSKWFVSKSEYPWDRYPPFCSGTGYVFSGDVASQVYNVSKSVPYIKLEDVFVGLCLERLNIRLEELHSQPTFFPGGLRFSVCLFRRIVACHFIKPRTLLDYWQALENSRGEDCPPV

[1] = target: T2, soluble β3GalT5-1 (insect) (Homo sapiens, UniProt Q9Y2C3); assay: X-ray crystal structure; type: binding; conditions: acceptor site, Mn2+
T2 construct: gene B3GALT5; crystal: Phe31-Pro308 stated, Asp41-Pro308 visible
T2 sequence (Q9Y2C3 29-310): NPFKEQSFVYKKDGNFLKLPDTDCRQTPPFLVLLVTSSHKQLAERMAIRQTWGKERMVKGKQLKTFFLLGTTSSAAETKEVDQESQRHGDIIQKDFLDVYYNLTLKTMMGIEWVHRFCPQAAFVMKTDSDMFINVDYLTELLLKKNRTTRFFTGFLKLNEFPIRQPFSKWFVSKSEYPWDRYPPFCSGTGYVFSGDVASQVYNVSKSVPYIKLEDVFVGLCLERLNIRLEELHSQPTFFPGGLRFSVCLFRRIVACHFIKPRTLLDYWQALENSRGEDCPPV

membrane-bound β3GalT5–1 = target: T3, membrane-bound β3GalT5–1 (Homo sapiens, UniProt Q9Y2C3); assay: galactosyltransferase activity; type: biochemical; conditions: UDP-Gal, with or without 1% LMNG
T3 construct: gene B3GALT5; full length M1-V310, C-terminal Flag tag, expressed in HEK293 cells, LMNG-extracted, anti-Flag purified
T3 sequence (Q9Y2C3 1-310): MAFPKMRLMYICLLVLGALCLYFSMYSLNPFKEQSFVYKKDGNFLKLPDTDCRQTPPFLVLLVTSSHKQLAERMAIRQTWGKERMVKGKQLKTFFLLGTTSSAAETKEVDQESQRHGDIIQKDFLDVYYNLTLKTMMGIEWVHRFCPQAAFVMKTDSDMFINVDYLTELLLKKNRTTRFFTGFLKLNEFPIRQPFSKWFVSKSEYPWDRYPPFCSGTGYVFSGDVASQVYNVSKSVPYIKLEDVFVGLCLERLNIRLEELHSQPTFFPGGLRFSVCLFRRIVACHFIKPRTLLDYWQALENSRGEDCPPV

`CC(=O)N[C@H]1[C@H](O[C@H]2[C@@H](O)[C@@H](CO)O[C@H](O[C@@H]3[C@H](O)[C@@H](O)[C@H](O[C@H]4[C@H](O)[C@@H](O)C(O)O[C@@H]4CO)O[C@@H]3CO)[C@@H]2O)O[C@H](CO)[C@H](O)[C@@H]1O` (stereo partly drawn) [Gb4 glycan] was tested, and the galactosyltransferase activity (membrane-bound β3GalT5–2) was “regardless of whether Gb4 or Gb4 glycan was used as a substrate”, the X-ray crystal structure [1] was “the acceptor substrate Gb4 glycan is represented by pink sticks” and the galactosyltransferase activity (membrane-bound β3GalT5–1) was “regardless of whether Gb4 or Gb4 glycan was used as a substrate”.
